For orientation: Ki means the equilibrium dissociation constant of an inhibitor or competing ligand from its target.

The record followed here is patent publication US7511055B2, “Naphthyridin derivatives” (Hoffmann-La Roche Inc., priority 2005, dated 2009).

T1 sequence (P41594 21-1180 isoform P41594-2 limits assumed): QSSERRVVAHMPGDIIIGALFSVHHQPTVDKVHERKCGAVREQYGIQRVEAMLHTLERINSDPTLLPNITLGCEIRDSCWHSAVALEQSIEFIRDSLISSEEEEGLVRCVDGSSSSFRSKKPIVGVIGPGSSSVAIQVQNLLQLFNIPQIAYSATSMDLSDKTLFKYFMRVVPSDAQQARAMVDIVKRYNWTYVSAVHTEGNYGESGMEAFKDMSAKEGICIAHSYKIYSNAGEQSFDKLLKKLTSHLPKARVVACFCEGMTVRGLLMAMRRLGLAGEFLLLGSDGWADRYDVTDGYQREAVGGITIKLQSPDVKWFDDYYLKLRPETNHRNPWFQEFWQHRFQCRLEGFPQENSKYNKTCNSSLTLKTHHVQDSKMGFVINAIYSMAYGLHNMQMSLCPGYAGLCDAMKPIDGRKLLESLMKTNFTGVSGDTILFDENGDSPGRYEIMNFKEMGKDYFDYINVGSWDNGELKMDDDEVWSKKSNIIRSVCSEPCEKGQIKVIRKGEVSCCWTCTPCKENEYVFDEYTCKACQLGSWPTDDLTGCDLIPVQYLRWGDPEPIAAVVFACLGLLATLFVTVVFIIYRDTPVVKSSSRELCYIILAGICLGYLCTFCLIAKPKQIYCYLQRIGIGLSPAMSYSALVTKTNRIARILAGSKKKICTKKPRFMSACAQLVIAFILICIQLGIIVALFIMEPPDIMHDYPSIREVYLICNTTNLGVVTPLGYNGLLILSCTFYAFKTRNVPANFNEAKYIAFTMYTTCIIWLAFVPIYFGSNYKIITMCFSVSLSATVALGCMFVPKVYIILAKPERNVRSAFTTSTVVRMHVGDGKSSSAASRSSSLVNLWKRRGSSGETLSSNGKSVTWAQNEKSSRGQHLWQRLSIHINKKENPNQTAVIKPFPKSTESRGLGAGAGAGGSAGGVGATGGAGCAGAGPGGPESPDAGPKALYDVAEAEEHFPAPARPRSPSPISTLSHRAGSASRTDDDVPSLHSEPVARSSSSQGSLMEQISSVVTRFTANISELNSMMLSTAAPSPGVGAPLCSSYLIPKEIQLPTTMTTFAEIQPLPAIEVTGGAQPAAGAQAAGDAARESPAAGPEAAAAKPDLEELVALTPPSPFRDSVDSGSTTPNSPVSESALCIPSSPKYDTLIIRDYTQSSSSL

This experiment has as its target T1, human mGlu 5a receptor (Homo sapiens, UniProt P41594).
T1 construct: expressed in transfected cells; host or cells: EBNA cells (transient transfection); cell membrane homogenates
In words: [3H]MPEP competition binding on membranes of EBNA cells transfected with human mGlu 5a receptor. The settings on record: competition with [3H]MPEP (2 nM), 1 h at 4° C., Ki=IC50/[1+L/Kd]. As to the method: The pharmacological activity of the compounds was tested using the following method: For binding experiments, cDNA encoding human mGlu 5a receptor was transiently transfected into EBNA cells using a procedure described by Schlaeger and Christensen [Cytotechnology 15:1-13 (1998)]. Cell membrane homogenates were stored at −80° C. until the day of assay where upon they were thawed and resuspended and polytronised in 15 mM Tris-HCl, 120 mM NaCl, 100 mM KCl, 25 mM CaCl2, 25 mM MgCl2 binding buffer at pH 7.4 to a final assay concentration of 20 μg protein/well.
Saturation isotherms were determined by addition of twelve [^3H]MPEP concentrations (0.04-100 nM) to these membranes (in a total volume of 200 μl) for 1 h at 4° C. Competition experiments were performed with a fixed concentration of [^3H]MPEP (2 nM) and IC50 values of test compounds evaluated using 11 concentrations (0.3-10,000 nM). Incubations were performed for 1 h at 4° C.
At the end of the incubation, membranes were filtered onto unifilter (96-well white microplate with bonded GF/C filter preincubated 1 h in 0.1% PEI in wash buffer, Packard BioScience, Meriden, Conn.) with a Filtermate 96 harvester (Packard BioScience) and washed 3 times with cold 50 mM Tris-HCl, pH 7.4 buffer. Nonspecific binding was measured in the presence of 10 μM MPEP. The radioactivity on the filter was counted (3 min) on a Packard Top-count microplate scintillation counter with quenching correction after addition of 45 μl of microscint 40 (Canberra Packard S.A., Zürich, Switzerland) and shaking for 20 min.
The inhibition (antagonists) curves were fitted with a four parameter logistic equation giving IC50, and Hill coefficient using iterative non linear curve fitting software (Xcel fit).
For binding experiments the Ki values of the compounds tested are given. The Ki value is defined by the following formula: Ki=IC50/[1+L/Kd] in which the IC50 values are those concentrations of the compounds tested which cause 50% inhibition of the competing radioligand ([^3H]MPEP). L is the concentration of radioligand used in the binding experiment and the Kd value of the radioligand is empirically determined for each batch of membranes prepared.
Turning to `Cc1cccc(Nc2nccc3cccnc23)n1` [Example 1, (6-Methyl-pyridin-2-yl)-[1,7]naphthyridin-8-yl-amine], the Ki came out at 25 nM.

`Clc1cccc(Nc2nccc3cccnc23)c1` [Example 2, (3-Chloro-phenyl)-[1,7]naphthyridin-8-yl-amine]: the Ki worked out at 89 nM.

Turning to `Cc1csc(Nc2nccc3cccnc23)n1` [Example 5, (4-Methyl-thiazol-2-yl)-[1,7]naphthyridin-8-yl-amine], the Ki turned out to be 62 nM.

Turning to `Cc1cccc(Nc2ncc(-c3cccnc3)c3cccnc23)n1` [Example 6, (6-Methyl-pyridin-2-yl)-(5-pyridin-3-yl-[1,7]naphthyridin-8-yl)-amine], the Ki stood at 33 nM.

As for `Clc1cccc(Nc2ncc(-c3cccnc3)c3cccnc23)c1` [Example 7, (3-Chloro-phenyl)-(5-pyridin-3-yl-[1,7]naphthyridin-8-yl)-amine], the Ki stood at 18 nM.

With `Clc1cc(Nc2ncc(-c3cccnc3)c3cccnc23)ccn1` [Example 8, (2-Chloro-pyridin-4-yl)-(5-pyridin-3-yl-[1,7]naphthyridin-8-yl)-amine], the Ki worked out at 38 nM.

Regarding `Cc1ccc(Nc2ncc(-c3cccnc3)c3cccnc23)nc1` [Example 9, (5-Methyl-pyridin-2-yl)-(5-pyridin-3-yl-[1,7]naphthyridin-8-yl)-amine], the Ki amounted to 86 nM.

Take `Fc1ccc(Nc2ncc(-c3cccnc3)c3cccnc23)nc1` [Example 10, (5-Fluoro-pyridin-2-yl)-(5-pyridin-3-yl-[1,7]naphthyridin-8-yl)-amine]: the inhibition constant (Ki) amounted to 19 nM.

Take `Clc1cccc(Nc2ncc(-c3ccc(Cl)nc3)c3cccnc23)c1` [Example 11, (3-Chloro-phenyl)-[5-(6-chloro-pyridin-3-yl)-[1,7]naphthyridin-8-yl]-amine]: the Ki turned out to be 8 nM.

On to `COc1ccc(-c2cnc(Nc3ccnc(Cl)c3)c3ncccc23)cn1` [Example 12, (2-Chloro-pyridin-4-yl)-[5-(6-methoxy-pyridin-3-yl)-[1,7]naphthyridin-8-yl]-amine], for which the inhibitory constant (Ki) turned out to be 56 nM.

In the case of `Fc1cncc(-c2cnc(Nc3ccnc(Cl)c3)c3ncccc23)c1` [Example 14, (2-Chloro-pyridin-4-yl)-[5-(5-fluoro-pyridin-3-yl)-[1,7]naphthyridin-8-yl]-amine], the Ki came out at 66 nM.

In the case of `Fc1ccc(Nc2ncc(-c3cncc(F)c3)c3cccnc23)nc1` [Example 15, (5-Fluoro-pyridin-2-yl)-[5-(5-fluoro-pyridin-3-yl)-[1,7]naphthyridin-8-yl]-amine], the Ki came to 66 nM.

In the case of `COc1cncc(-c2cnc(Nc3ccc(F)cn3)c3ncccc23)c1` [Example 17, (5-Fluoro-pyridin-2-yl)-[5-(5-methoxy-pyridin-3-yl)-[1,7]naphthyridin-8-yl]-amine], the inhibition constant (Ki) came out at 41 nM.

`Clc1cc(Nc2ncc(-c3cncnc3)c3cccnc23)ccn1` [Example 18, (2-Chloro-pyridin-4-yl)-(5-pyrimidin-5-yl-[1,7]naphthyridin-8-yl)-amine]: the Ki came out at 41 nM.

For the compound `Fc1ccc(Nc2ncc(-c3cncnc3)c3cccnc23)nc1` [Example 19, (5-Fluoro-pyridin-2-yl)-(5-pyrimidin-5-yl-[1,7]naphthyridin-8-yl)-amine], the Ki came out at 44 nM.

Take `COc1cccc(-c2cnc(Nc3nc(C)cs3)c3nc(C)ccc23)c1` [Example 42, [5-(3-Methoxy-phenyl)-2-methyl-[1,7]naphthyridin-8-yl]-(4-methyl-thiazol-2-yl)-amine]: the Ki came out at 56 nM.

In the case of `Cc1csc(Nc2ncc(-c3cccc(C(F)(F)F)c3)c3ccc(C)nc23)n1` [Example 43, (4-Methyl-thiazol-2-yl)-[2-methyl-5-(3-trifluoromethyl-phenyl)-[1,7]naphthyridin-8-yl]-amine], the Ki was 51 nM.

As for `Cc1ccc2c(-c3cccc(F)c3)cnc(Nc3ccn(C)n3)c2n1` [Example 68, [5-(3-Fluoro-phenyl)-2-methyl-[1,7]naphthyridin-8-yl]-(1-methyl-1H-pyrazol-3-yl)-amine], the inhibitory constant (Ki) came to 38 nM.

As to `Cc1csc(Nc2ncc(-c3cncc(C(F)(F)F)n3)c3ccc(C)nc23)n1` [Example 81, (4-Methyl-thiazol-2-yl)-[2-methyl-5-(6-trifluoromethyl-pyrazin-2-yl)-[1,7]naphthyridin-8-yl]-amine], the Ki is 51 nM.
